Test system: patients diagnosed with herpes simplex virus (seizures associated with herpes simplex virus)
Experiment: Open label, expanded-access program: seizure frequency recorded by caregivers in a diary, change relative to baseline
Type: in vivo, human
Design: Reduction in myoclonic seizures over the treatment period / Reduction in absence seizures over the treatment period / Reduction in focal seizures with impairment over the treatment period / Reduction in tonic-clonic seizures over the treatment period / Reduction in atonic seizures over the treatment period / Reduction in tonic seizures over the treatment period: concentration or dose not given beside the values; Seizure frequency, tonic-clonic / Seizure frequency, myoclonic / Seizure frequency, absence / Seizure frequency, focal with impairment / Seizure frequency, tonic / Seizure frequency, focal without impairment / Seizure frequency, atonic: unit not given here
Conditions: for Seizure frequency, atonic: baseline 20.0
Method: Subjects were required to be on one or more AEDs at stable doses for a minimum of two weeks prior to baseline and to have stable vagus nerve stimulation (VNS) settings and ketogenic diet ratios for a minimum of four weeks prior to baseline.
Modifications were made to concomitant AEDs as per clinical indication.
Seizure frequency, intensity, and duration were recorded by caregivers in a diary during a baseline period of at least 28 days. Changes in seizure frequency relative to baseline were calculated after at least 2 weeks and at defined timepoints of treatment.
Patients may be defined as responders if they had more than 50% reduction in seizure frequency compared to baseline. The percent change in seizure frequency was calculated as follows: […]
The percent change of seizure frequency may be calculated for any time interval where seizure number has been recorded. For the purpose of this example the percent change of seizure frequency for the end of the treatment period was calculated as follows: […]

[1] = Patient 1, treated for 48 weeks, vs baseline
[2] = Patient 2, 4 weeks, CBD 25.0 mg/kg/day, baseline 8.0
[3] = Patient 2, 8 weeks, CBD 25.0 mg/kg/day, baseline 8.0
[4] = Patient 2, 24 weeks, CBD 25.0 mg/kg/day, baseline 8.0
[5] = Patient 3, treated for 108 weeks, vs baseline

With `C=C(C)[C@@H]1CCC(C)=C[C@H]1c1c(O)cc(CCCCC)cc1O` [CBD, cannabidiol] the “Time of treatment after which patient became completely seizure free, focal seizures with impairment” value (Patient 1) was 24 weeks, the “Time of treatment after which patient became completely seizure free, myoclonic seizures” value (Patient 1) was 8 weeks and the “Seizure frequency, tonic-clonic” value (Patient 1, 4 weeks, CBD 5.0 mg/kg/day, baseline 0.0) was 14.0. For the same compound, the “Seizure frequency, myoclonic” value (Patient 1, 4 weeks, CBD 5.0 mg/kg/day, baseline 75.0) was 4.0, the “Seizure frequency, focal with impairment” value (Patient 1, 4 weeks, CBD 5.0 mg/kg/day, baseline 100.0) was 14.0 and the “Seizure frequency, absence” value (Patient 1, 4 weeks, CBD 5.0 mg/kg/day, baseline 2500.0) was 800.0. For the same compound, the “Seizure frequency, tonic-clonic” value (Patient 1, 8 weeks, CBD 10.0 mg/kg/day, baseline 0.0) was 20.0, the “Seizure frequency, myoclonic” value (Patient 1, 8 weeks, CBD 10.0 mg/kg/day, baseline 75.0) was 0.0 and the “Seizure frequency, focal with impairment” value (Patient 1, 8 weeks, CBD 10.0 mg/kg/day, baseline 100.0) was 12.0. For the same compound, the “Seizure frequency, absence” value (Patient 1, 8 weeks, CBD 10.0 mg/kg/day, baseline 2500.0) was 1390.0, the “Seizure frequency, tonic-clonic” value (Patient 1, 16 weeks, CBD 15.0 mg/kg/day, baseline 0.0) was 20.0 and the “Seizure frequency, myoclonic” value (Patient 1, 16 weeks, CBD 15.0 mg/kg/day, baseline 75.0) was 0.0. The “Seizure frequency, focal with impairment” value (Patient 1, 16 weeks, CBD 15.0 mg/kg/day, baseline 100.0) was 7.0, the “Seizure frequency, absence” value (Patient 1, 16 weeks, CBD 15.0 mg/kg/day, baseline 2500.0) was 250.0 and the “Seizure frequency, tonic-clonic” value (Patient 1, 24 weeks, CBD 20.0 mg/kg/day, baseline 0.0) was 79.6. For the same compound, the “Seizure frequency, myoclonic” value (Patient 1, 24 weeks, CBD 20.0 mg/kg/day, baseline 75.0) was 0.0, the “Seizure frequency, focal with impairment” value (Patient 1, 24 weeks, CBD 20.0 mg/kg/day, baseline 100.0) was 0.0 and the “Seizure frequency, absence” value (Patient 1, 24 weeks, CBD 20.0 mg/kg/day, baseline 2500.0) was 398.0. For the same compound, the “Seizure frequency, tonic-clonic” value (Patient 1, 36 weeks, CBD 25.0 mg/kg/day, baseline 0.0) was 31.3, the “Seizure frequency, myoclonic” value (Patient 1, 36 weeks, CBD 25.0 mg/kg/day, baseline 75.0) was 0.0 and the “Seizure frequency, focal with impairment” value (Patient 1, 36 weeks, CBD 25.0 mg/kg/day, baseline 100.0) was 0.0. The “Seizure frequency, absence” value (Patient 1, 36 weeks, CBD 25.0 mg/kg/day, baseline 2500.0) was 466.6, the “Seizure frequency, tonic-clonic” value (Patient 1, 48 weeks, CBD 25.0 mg/kg/day, baseline 0.0) was 16.0 and the “Seizure frequency, myoclonic” value (Patient 1, 48 weeks, CBD 25.0 mg/kg/day, baseline 75.0) was 0.0. For the same compound, the “Seizure frequency, focal with impairment” value (Patient 1, 48 weeks, CBD 25.0 mg/kg/day, baseline 100.0) was 0.0, the “Seizure frequency, absence” value (Patient 1, 48 weeks, CBD 25.0 mg/kg/day, baseline 2500.0) was 231.7 and the “Reduction in absence seizures over the treatment period” value [1] was 90.7%. The “Reduction in focal seizures with impairment over the treatment period” value [1] was 100%, the “Reduction in myoclonic seizures over the treatment period” value [1] was 100% and the “Seizure frequency, tonic-clonic” value (Patient 2, 4 weeks, CBD 25.0 mg/kg/day, baseline 1.0) was 0.0. The “Seizure frequency, absence” value [2] was 6.0, the “Seizure frequency, focal without impairment” value [2] was 8.0 and the “Seizure frequency, tonic” value (Patient 2, 4 weeks, CBD 25.0 mg/kg/day, baseline 32.0) was 44.0. The “Seizure frequency, tonic-clonic” value (Patient 2, 8 weeks, CBD 25.0 mg/kg/day, baseline 1.0) was 0.0, the “Seizure frequency, absence” value [3] was 0.0 and the “Seizure frequency, focal without impairment” value [3] was 0.0. For the same compound, the “Seizure frequency, tonic” value (Patient 2, 8 weeks, CBD 25.0 mg/kg/day, baseline 32.0) was 24.0, the “Seizure frequency, tonic-clonic” value (Patient 2, 24 weeks, CBD 25.0 mg/kg/day, baseline 1.0) was 0.5 and the “Seizure frequency, absence” value [4] was 12.0. For the same compound, the “Seizure frequency, focal without impairment” value [4] was 17.0, the “Seizure frequency, tonic” value (Patient 2, 24 weeks, CBD 25.0 mg/kg/day, baseline 32.0) was 56.0 and the “Reduction in tonic-clonic seizures over the treatment period” value (Patient 2, treated for 24 weeks, vs baseline) was 50%. The “Seizure frequency, tonic-clonic” value (Patient 3, 2 weeks, CBD 5.0 mg/kg/day, baseline 6.0) was 8.0, the “Seizure frequency, myoclonic” value (Patient 3, 2 weeks, CBD 5.0 mg/kg/day, baseline 32.0) was 6.0 and the “Seizure frequency, tonic-clonic” value (Patient 3, 4 weeks, CBD 10.0 mg/kg/day, baseline 6.0) was 5.3. The “Seizure frequency, myoclonic” value (Patient 3, 4 weeks, CBD 10.0 mg/kg/day, baseline 32.0) was 9.3, the “Seizure frequency, tonic-clonic” value (Patient 3, 8 weeks, CBD 20.0 mg/kg/day, baseline 6.0) was 6.0 and the “Seizure frequency, myoclonic” value (Patient 3, 8 weeks, CBD 20.0 mg/kg/day, baseline 32.0) was 16.0. The “Seizure frequency, tonic-clonic” value (Patient 3, 16 weeks, CBD 25.0 mg/kg/day, baseline 6.0) was 11.0, the “Seizure frequency, myoclonic” value (Patient 3, 16 weeks, CBD 25.0 mg/kg/day, baseline 32.0) was 4.0 and the “Seizure frequency, tonic-clonic” value (Patient 3, 36 weeks, CBD 30.0 mg/kg/day, baseline 6.0) was 2.6. The “Seizure frequency, myoclonic” value (Patient 3, 36 weeks, CBD 30.0 mg/kg/day, baseline 32.0) was 9.3, the “Seizure frequency, tonic-clonic” value (Patient 3, 48 weeks, CBD 35.0 mg/kg/day, baseline 6.0) was 7.7 and the “Seizure frequency, myoclonic” value (Patient 3, 48 weeks, CBD 35.0 mg/kg/day, baseline 32.0) was 18.4. The “Seizure frequency, tonic-clonic” value (Patient 3, 60 weeks, CBD 35.0 mg/kg/day, baseline 6.0) was 6.6, the “Seizure frequency, myoclonic” value (Patient 3, 60 weeks, CBD 35.0 mg/kg/day, baseline 32.0) was 19.4 and the “Seizure frequency, tonic-clonic” value (Patient 3, 72 weeks, CBD 30.0 mg/kg/day, baseline 6.0) was 3.4. The “Seizure frequency, myoclonic” value (Patient 3, 72 weeks, CBD 30.0 mg/kg/day, baseline 32.0) was 9.7, the “Seizure frequency, tonic-clonic” value (Patient 3, 96 weeks, CBD 30.0 mg/kg/day, baseline 6.0) was 1.0 and the “Seizure frequency, myoclonic” value (Patient 3, 96 weeks, CBD 30.0 mg/kg/day, baseline 32.0) was 13.8. For the same compound, the “Seizure frequency, tonic-clonic” value (Patient 3, 108 weeks, CBD 30.0 mg/kg/day, baseline 6.0) was 0.9, the “Seizure frequency, myoclonic” value (Patient 3, 108 weeks, CBD 30.0 mg/kg/day, baseline 32.0) was 13.8 and the “Reduction in myoclonic seizures over the treatment period” value [5] was 56.9%. The “Reduction in tonic-clonic seizures over the treatment period” value [5] was 85%, the “Seizure frequency, tonic-clonic” value (Patient 4, 2 weeks, CBD 5.0 mg/kg/day, baseline 10.0) was 2.0 and the “Seizure frequency, focal with impairment” value (Patient 4, 2 weeks, CBD 5.0 mg/kg/day, baseline 14.0) was 4.0. For the same compound, the “Seizure frequency, atonic” value (Patient 4, 2 weeks, CBD 5.0 mg/kg/day) was 0.0, the “Seizure frequency, tonic-clonic” value (Patient 4, 4 weeks, CBD 10.0 mg/kg/day, baseline 10.0) was 2.0 and the “Seizure frequency, focal with impairment” value (Patient 4, 4 weeks, CBD 10.0 mg/kg/day, baseline 14.0) was 2.0. The “Seizure frequency, atonic” value (Patient 4, 4 weeks, CBD 10.0 mg/kg/day) was 1.0, the “Seizure frequency, tonic-clonic” value (Patient 4, 8 weeks, CBD 20.0 mg/kg/day, baseline 10.0) was 0.0 and the “Seizure frequency, focal with impairment” value (Patient 4, 8 weeks, CBD 20.0 mg/kg/day, baseline 14.0) was 0.0. The “Seizure frequency, atonic” value (Patient 4, 8 weeks, CBD 20.0 mg/kg/day) was 0.0, the “Seizure frequency, tonic-clonic” value (Patient 4, 12 weeks, CBD 20.0 mg/kg/day, baseline 10.0) was 0.0 and the “Seizure frequency, focal with impairment” value (Patient 4, 12 weeks, CBD 20.0 mg/kg/day, baseline 14.0) was 0.0. For the same compound, the “Seizure frequency, atonic” value (Patient 4, 12 weeks, CBD 20.0 mg/kg/day) was 5.0.

From patent publication US20240033272A1, “USE OF C[…] THE TREATMENT OF SEIZURES ASSOCIATED WITH HERPES SIMPLEX VIRUS” (GW Research Limited, priority 2020, published 2024)
